Measured values reported in patent publication US6506755B2, “Thiazolidinecarboxyl acids” (Hoffmann-La Roche Inc., priority 2000, dated 2003).

Molecular target: human urokinase (uPA) binding to the specific receptor uPAR (Homo sapiens, UniProt Q03405)
Assay: ELISA test of inhibition of uPA binding to the receptor uPAR
Conditions: compound concentration 1 μg/ml, 96-well microtitre plates
Procedure: The compound of the invention were tested (ELISA test) as human urokinase (uPA) inhibitors, which bind to the specific receptor uPAR mAk (BIO-R4), in accordance with the procedure described by Rettenberger et al. In Biol. Chem. Hoppe Seyler 376, 587-94 (1995). The assays are carried out in microtitre plates (96 wells).

Sequence of human urokinase (uPA) binding to the specific receptor uPAR (Q03405 23-305 limits assumed): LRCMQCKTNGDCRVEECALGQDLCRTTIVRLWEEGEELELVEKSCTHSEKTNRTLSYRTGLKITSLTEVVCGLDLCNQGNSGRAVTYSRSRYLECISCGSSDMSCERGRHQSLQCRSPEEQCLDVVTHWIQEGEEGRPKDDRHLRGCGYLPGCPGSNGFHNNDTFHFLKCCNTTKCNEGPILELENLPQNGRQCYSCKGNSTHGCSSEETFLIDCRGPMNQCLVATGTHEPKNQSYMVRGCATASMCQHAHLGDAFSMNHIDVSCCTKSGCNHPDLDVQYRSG

Point of comparison: `Cc1ccc(COc2ccc(C=C3SC(=S)N(C(C(=O)O)c4ccccc4)C3=O)c(OCc3ccc(C)cc3)c2)cc1` (stereo not drawn) [Example 22, 2-{5-[(2,4-Bis-(4-methylphenylmethoxy)phenyl)methylene]-4-oxo-2-thioxo-3-thiazolidine}-2-phenylacetic Acid], “% Inhibition at 1 μg/ml concentration” value 60%. Against it:
- Cc1ccc(COc2ccc(C=C3SC(=S)N(C(Cc4ccccc4)C(=O)O)C3=O)c(OCc3ccc(C)cc3)c2)cc1 (stereo not drawn) [Example 23, 2-{5-[(2,4-Bis-(4-methylphenylmethoxy)phenyl)methylene]-4-oxo-2-thioxo-3-thiazolidine}-3-phenypropionic Acid] — lower, 54%
- Cc1ccc(COc2ccc(C=C3SC(=S)N(C(C(=O)O)c4ccc(Cl)cc4)C3=O)c(OCc3ccc(C)cc3)c2)cc1 (stereo not drawn) [Example 24, 2-{5-[(2,4-Bis-(4-methylphenylmethoxy)phenyl)methylene]-4-oxo-2-thioxo-3-thiazolidine}-2-(4-chlorophenyl)acetic Acid] — higher, 69%

Point of comparison: `Cc1ccc(COc2ccc(C=C3SC(=S)N(CC(=O)O)C3=O)c(OCc3ccc(C)cc3)c2)cc1` [Compound 2, 5-[(2,4-Bis-(4-methylphenylmethoxy)phenyl)methylene]-4-oxo-2-thioxo-3-thiazolidineacetic acid], inhibition at 1 µg/mL 48%. Against it:
- O=C(O)CN1C(=O)C(=Cc2cc(OCCCc3ccccc3)ccc2OCc2cccs2)SC1=S [Example 15, 5-[(2-(2-Thienylmethoxy)-5-(3-phenylpropoxy)phenyl)methylene]-4-oxo-2-thioxo-3-thiazolidineacetic Acid] — higher, 63%
- O=C(O)CN1C(=O)C(=Cc2cc(OCCCc3ccccc3)ccc2OCc2ccccc2)SC1=S [Example 13, 5-[(2-Phenylmethoxy-5-(3-phenylpropoxy)phenyl)methylene]-4-oxo-2-thioxo-3-thiazolidineacetic Acid] — higher, 53%
- Cc1ccc(COc2ccc(OCc3ccc(C)cc3)c(C=C3SC(=S)N(CC(=O)O)C3=O)c2)cc1 [Example 2, 5-[(2,5-Bis-(4-methylphenylmethoxy)phenyl)methylene]-4-oxo-2-thioxo-3-thiazolidineacetic Acid] — higher, 68%
- O=C(O)CN1C(=O)C(=Cc2cc(OCCCc3ccc(Cl)cc3)ccc2OCCCc2ccc(Cl)cc2)SC1=S [Example 6, 5-[(2,5-Bis-(3-(4-chlorophenyl)propoxy)phenyl)methylene]-4-oxo-2-thioxo-3-thiazolidine-acetic Acid] — higher, 57%

Tested on: not given
Assay: not given
Conditions: not given

In the case of `Cc1ccc(COc2ccc(C=C3SC(=S)N(CC(=O)O)C3=O)c(OCc3ccc(C)cc3)c2)cc1` [Compound 2, 5-[(2,4-Bis-(4-methylphenylmethoxy)phenyl)methylene]-4-oxo-2-thioxo-3-thiazolidineacetic acid], the melting point is reported as 211 °C.
